Assay results taken from patent US11491185B2, “Intra-mammary teat sealant formulation and method of using same to reduce or eliminate visual defects in aged cheeses” (Wisconsin Alumni Research Foundation, priority 2006, dated 2022).

Assay: Laboratory-induced black spot defect: cheese with ITS components exposed to aged cheese volatiles or hydrogen sulfide gas
Assay type: physicochemical
Conditions: blended in cheese, exposed to authentic cheese volatiles or H2S gas
Procedure: FIGS. 4A and 4B are images of laboratory-induced black spot defects. In FIG. 4A, the various components of “ORBESEAL”-brand intra-mammary teat sealant (ITS) were blended with cheese and each spot was photographed immediately. […] Sites 4 and 5 contain bismuth subnitrate and the intact “ORBESEAL”-brand ITS formulation, respectively.
To confirm the reactivity of bismuth subnitrate as a reactant in forming bismuth Ill sulfide nanorods, additional assays were conducted to see if BSD could be purposefully recreated in the lab. In short, cheeses were manufactured with known amounts of ITS components and subjected to either the authentic volatile gasses produced by maturing cheeses or exposed directly to the hypothesized bismuth subnitrate co-reactant, hydrogen sulfide gas. […] No other ITS component formed black spots when so exposed. Furthermore, the susceptible sites formed identically black pigmentation when exposed to either authentic cheese volatiles or to hydrogen sulfide gas, thus confirming that hydrogen sulfide gas was the suspected co-reactant.

Structure (SMILES): O=[N+]([O-])[O-].O=[N+]([O-])[O-].O=[N+]([O-])[O-].O=[N+]([O-])[O-].[Bi+3].[Bi+3].[Bi+3].[Bi+3].[Bi+3].[O-2].[OH-].[OH-].[OH-].[OH-].[OH-].[OH-].[OH-].[OH-].[OH-] [bismuth subnitrate]
- Formation of black pigmentation (black spots) with nanorod structures: formed identical black pigmentation
